Patent US20140221301A1, “COMBINATION TREATMENT FOR CANCER” (priority 2011, published 2014)

What was measured:
[1] = tested on: M9-ENL1 cells; assay: Chemical screen, MTS assay, M9-ENL1 cells; format: cell-based, human; settings: 10 μM, 48 hours
Text: To identify compounds active against leukemia stem cells, a library of drugs (n=312) with well-characterized pharmacokinetics and toxicology and a wide therapeutic window was compiled. This library was then screened to identify agents that reduced the viability of TEX and M9-ENL1 cells. TEX and M9-ENL1 cells were derived from lineage-depleted human cord blood cells (Lin-CB) transduced with TLS-ERG or MLL-ENL oncogenes, respectively, and, as shown previously, display properties of stem cells including hierarchal differentiation and marrow repopulation^14, 15. In this screen, TEX and M9-ENL1 cells were treated with aliquots of the compounds. After incubation, cell growth and viability was measured by the MTS assay. From this screen, tigecycline was identified.
TEX, and M9-ENL-1 cells were seeded into 96-well polystyrene tissue culture plates (Corning). […] 72 (TEX) and 48 (M9-ENL-1) hours after incubation, cell growth and viability was measured by MTS assay. […]
Cell growth and viability was assessed by the MTS assay (Promega, Madison, Wis.) according to the manufacturer's instructions. Apoptosis and cell death was measured by Annexin V-fluroscein isothiocyanate (FITC; Biovision Research Products, Mountain View, Calif.), propidium iodide staining and flow cytometry according to the manufacturer's instructions and as previously described^30. […]

[2] = rat, in vivo, 30 mg/kg/day; cited from earlier work
[3] = tested on: solid tumour cell lines; assay: Cell growth and viability, MTS assay, solid tumour cell lines; format: cell-based; settings: 72 hours
Procedure: (§1) FIG. 1. […] (A) TEX and (B) M9-ENL1 cells were plated in 96-well plates and drugs were added to the wells (5 μL per well) for final concentrations of 10 μM (shown) and 1 μM. Cell growth and viability was measured at 48 hours (M9-ENL-1) and 72 hours (TEX) by MTS assay. Cell viability is shown for each compound as a percent of cells treated with DMSO alone. (C) Leukemia, (D) myeloma, and (E) solid tumor cell lines were seeded in 96-well plates and then treated with increasing concentrations of tigecycline. Cell growth and viability was measured at 72 hours by MTS assay. Cell viability is expressed as mean percentage plus or minus SD (n=3) relative to vehicle-treated cells. […] Cell viability was measured at 72 hours by MTS assay. Cell viability is expressed as mean percentage plus or minus SD (n=3) relative to vehicle-treated cells.
Human leukemia (OCI-AML2, HL60, U937) cell lines were maintained in RPMI 1640 medium. Myeloma (LP-1, KMS11, 8226, JJN3, OP-M2) cell lines were maintained in Iscove's media. […]
(§2) Cell growth and viability was assessed by the MTS assay (Promega, Madison, Wis.) according to the manufacturer's instructions. Apoptosis and cell death was measured by Annexin V-fluroscein isothiocyanate (FITC; Biovision Research Products, Mountain View, Calif.), propidium iodide staining and flow cytometry according to the manufacturer's instructions and as previously described^30.

[4] = tested on: TEX cells; assay: Apoptosis by Annexin V flow cytometry in TEX cells; format: cell-based, human; settings: over time
Procedure: as §1, §2

[5] = tested on: normal hematopoietic cells from G-CSF mobilized normal donors; assay: Mitochondrial membrane potential, JC-1, normal hematopoietic cells; format: cell-based, human; settings: normal cells from two G-CSF mobilized donors
Procedure: FIG. 4. Tigecycline decreases mitochondrial Cox-1 protein levels in TEX cells. (A) Cells from TEX, OCI-AML2 and two primary AML patients were treated with increasing concentrations (2.5 μM and 5 μM) of tigecycline for 36 and 48 hours of tigecycline. Total proteins were extracted and analyzed by western blotting for Cox-1, Cox-2, Cox-4, grp78, XIAP, actin and tubulin. (B) TEX and AML patient cells were treated with increasing concentrations (2.5 μM and 5 μM) of tigecycline. Cox-1, Cox-2, and Cox-4 mRNA expression relative 18S was determined by quantitative RT-PCR. Data is shown as mean±SD. […] Complex I, II and IV enzyme activity relative to citrate synthase activity was determined as described in materials and methods. […] Mitochondrial membrane potential (ΔΨ) was determined by staining cells with JC-1 dye, and flow cytometry analysis (Red/Green ratio). Reactive oxygen species generation (ROS) was determined by staining with h2-DCFDA and Dihydroethidium (DHE).
To measure mitochondrial membrane potential, cells were treated with tigecycline similarly as described above and then washed twice with PBS and incubated with 5 μM of 5,5′,6,6′-tetrachloro-1,1′,3,3′-tetraethyl benzimidazolylcarbocyanine iodide (JC-1, Sigma-Aldrich) for 20 minutes at 37° C. Each sample was then washed twice with 1 mL PBS and resuspended in 500 μL PBS prior to being read on a BD FACSCalibur. […]

Compound: CN(C)c1cc(NC(=O)CNC(C)(C)C)c(O)c2c1C[C@H]1C[C@H]3[C@H](N(C)C)C(O)=C(C(N)=O)C(=O)[C@@]3(O)C(O)=C1C2=O [tigecycline]
- cell growth and viability in screen [1]: cell growth inhibitor
- toxicology findings [2]: reversible anemia, thrombocytopenia, and leucopenia with a hypocellular bone marrow
- IC50 [3]: > 10 µM
- apoptosis, percentage of cells labeled by Annexin V [4]: time-dependent increases in apoptosis
- loss of mitochondrial membrane potential [5]: not seen
